The values that follow come from US20170280720A1, “ARGININE […] INHIBITORS AND USES THEREOF” (EPIZYME, INC., priority 2014, published 2017).

The target of experiment [1] is PRMT5 (Homo sapiens, UniProt O14744). As to the kind of experiment: PRMT5 IC50 (Table 2; no method described). Type of experiment: biochemical. Particulars: read-out: PRMT5_ IC50.
Experiment [2] concerns asymmetric di-methyl PABP1 in RKO cells. Briefly: In Cell Western (ICW) for asymmetric di-methyl PABP1 and DNA content in RKO cells. Type of experiment: cell-based. Particulars: Homo sapiens, RKO, In Cell Western. The method, boiled down: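 RKO cells treated with compound for 48 h at 37 °C, then fixed, methanol-permeabilized and stained for asymmetric di-methyl PABP1 (800 nm) with DRAQ5 DNA stain (700 nm). Signal ratio normalized to DMSO and 20 μM reference-compound controls. IC50 from nine 3-fold dilutions in triplicate.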

PRMT5, sequence (O14744 whole entry, species assumed): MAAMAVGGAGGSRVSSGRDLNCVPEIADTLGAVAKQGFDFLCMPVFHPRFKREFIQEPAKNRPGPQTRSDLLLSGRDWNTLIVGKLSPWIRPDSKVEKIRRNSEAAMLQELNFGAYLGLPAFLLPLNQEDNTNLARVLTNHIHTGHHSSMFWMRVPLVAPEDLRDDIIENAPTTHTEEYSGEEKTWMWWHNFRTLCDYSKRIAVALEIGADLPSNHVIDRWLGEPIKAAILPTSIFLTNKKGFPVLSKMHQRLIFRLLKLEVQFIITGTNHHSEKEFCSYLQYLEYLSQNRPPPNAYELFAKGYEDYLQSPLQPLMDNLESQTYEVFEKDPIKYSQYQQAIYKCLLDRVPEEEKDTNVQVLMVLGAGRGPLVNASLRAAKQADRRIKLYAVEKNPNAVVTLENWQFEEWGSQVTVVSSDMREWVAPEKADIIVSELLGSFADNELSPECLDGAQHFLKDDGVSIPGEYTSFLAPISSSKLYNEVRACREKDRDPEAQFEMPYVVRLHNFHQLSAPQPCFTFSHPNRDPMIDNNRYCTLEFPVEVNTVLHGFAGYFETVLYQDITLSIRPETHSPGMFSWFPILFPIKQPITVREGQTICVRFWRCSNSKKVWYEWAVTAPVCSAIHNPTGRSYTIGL
PRMT5, sequence (Q9BQA1 whole entry partner, species assumed): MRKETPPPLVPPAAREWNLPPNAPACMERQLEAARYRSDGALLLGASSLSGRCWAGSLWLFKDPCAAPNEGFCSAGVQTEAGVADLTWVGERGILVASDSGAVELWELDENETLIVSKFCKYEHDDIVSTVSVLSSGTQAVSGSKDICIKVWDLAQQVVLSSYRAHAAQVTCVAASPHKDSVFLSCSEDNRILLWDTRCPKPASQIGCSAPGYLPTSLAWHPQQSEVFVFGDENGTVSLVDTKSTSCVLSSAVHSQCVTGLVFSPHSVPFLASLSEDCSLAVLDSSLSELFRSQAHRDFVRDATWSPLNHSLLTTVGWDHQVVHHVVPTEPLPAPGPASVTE

On to `COc1cccc(-n2cnc3ccc(-c4ccc(CNCCN)cc4)cc32)c1` [Compound 110], for which the IC50 in experiment [1] was determined as 0.273 µM.
Take `CNCCN(C)Cc1cccc(-c2nc(NCc3cn4ccsc4n3)c3cnn(C4CC4)c3n2)c1` [Compound 6]: the IC50 in experiment [2] is 0.39 µM.
Still for that read-out and setting: the figure for `CNCCN(C)Cc1cccc(-c2nc(NC3CC3)c3cnn(C4CC4)c3n2)c1` [Compound 114] is 20 µM.
Still for that read-out and setting: the figure for `CC(C)n1ncc2c(C(=O)NCC3CCOCC3)cc(-c3cccc(CN(C)CCN)c3)nc21` [Compound 108] is 1.13 µM.
Turning to `Cc1c(C(=O)NCc2ccccc2)cc(-c2ccc(CN(C)CCN)cc2)c2cn[nH]c12` [Compound 7], in experiment [1], the IC50 came to 22.5 µM.
`CNCCN(C)Cc1cccc(-c2cc(C(=O)NCc3cc(C)nn3C)c3cnn(C(C)C)c3n2)c1` [Compound 120] had an IC50 in experiment [2] of 1.53 µM.
The compound `CC(C)n1ncc2c(NS(=O)(=O)N(C)C)cc(-c3cccc(CN(C)CCN)c3)nc21` [Compound 107] gave an IC50 in experiment [2] of 11.8 µM.
The same measure, in the same setting: the figure for `CNCCN(C)Cc1cccc(-c2cc(NC(=O)NC(C)C)c3cnn(C(C)C)c3n2)c1` [Compound 85] is 2.58 µM; for `CNCCN(C)Cc1cccc(-c2cc(C#N)c3cnn(C(C)C)c3n2)c1` [Compound 74] it is 20 µM.
`CNCCN(C)Cc1cccc(-c2cc(NC3CCOCC3)c3cnn(C(C)C)c3n2)c1` [Compound 76]: in experiment [2], half-maximal inhibition (IC50) required 1.63 µM.
Regarding `Cc1ccc(Cn2cnc3ccc(-c4ccc(CNCCN)cc4)cc32)cc1` [Compound 97], in experiment [1], the IC50 worked out at 0.0659 µM.
Turning to `CNCCN(C)Cc1cccc(-c2cc(OC3CCOC3)c3cnn(C(C)C)c3n2)c1` (stereo not shown) [Compound 102], inhibition in experiment [2] was half-maximal at 10.9 µM (IC50).
The same measure, in the same setting: the figure for `CNCCN(C)Cc1cccc(-c2cc(N3CCC(C#N)CC3)c3cnn(C(C)C)c3n2)c1` [Compound 93] is 1.65 µM; for `CC(C)n1ncc2c(N3CCOCC3)cc(-c3cccc(CN(C)CCN)c3)nc21` [Compound 61, N1-(3-(1-isopropyl-4-morpholino-1H-pyrazolo[3,4-b]pyridin-6-yl)benzyl)-N1-methylethane-1,2-diamine] it is 5.66 µM; for `CC(C)n1ncc2c(NC(=O)N(C)C)cc(-c3cccc(CN(C)CCN)c3)nc21` [Compound 116] it is 2.62 µM.
Still for that read-out and setting: the figure for `CNCCN(C)Cc1cccc(-c2cc(N3CCCC(C#N)C3)c3cnn(C(C)C)c3n2)c1` (stereo not shown) [Compound 55] is 4.81 µM.
Still for that read-out and setting: then `CNCCN(C)Cc1cccc(-c2cc(NC3COC3)c3cnn(C(C)C)c3n2)c1` [Compound 58], with 3.2 µM; and `COC(=O)Nc1cc(-c2cccc(CN(C)CCN)c2)nc2c1cnn2C(C)C` [Compound 71], with 11 µM; and `CC(C)n1cc2c(Cl)cc(-c3cccc(CN(C)CCN)c3)nc2n1` [Compound 59], with 15.5 µM.
Consider `COc1ccccc1Cn1cnc2ccc(-c3ccc(CNCCN)cc3)cc21` [Compound 80], for which the IC50 in experiment [1] worked out at 0.161 µM.
Turning to `CNCCN(C)Cc1cccc(-c2cc(OC)c3cnn(C(C)C)c3n2)c1` [Compound 124], the midpoint of inhibition in experiment [2], the IC50, lay at 17.8 µM.
For `COc1cccc(CCn2cnc3ccc(-c4ccc(CNCCN)cc4)cc32)c1` [Compound 94], in experiment [1], the IC50 stood at 0.0888 µM.
Same read-out and setting: then `COc1ccccc1-c1nc2ccc(-c3ccc(CNCCN)cc3)cc2[nH]1` [Compound 115], with 0.343 µM.
As to `CC(C)n1ncc2c(NC3CCOCC3)cc(-c3cccc(CN(C)CCN)c3)nc21` [Compound 101], in experiment [2], the IC50 is 6.31 µM.
On the same count and under the same terms, the figure for `CCNc1cc(-c2cccc(CN(C)CCNC)c2)nc2c1cnn2C(C)C` [Compound 72] is 5.36 µM; for `CNCCN(C)Cc1cccc(-c2nc(NCc3ccccn3)c3cnn(C4CC4)c3n2)c1` [Compound 9] it is 20 µM; for `CN(CCN)Cc1cccc(-c2nc(N(C)C3CCOCC3)c3cnn(C4CC4)c3n2)c1` [Compound 119] it is 1.37 µM.
The same measure, in the same setting: the figure for `CNCCN(C)Cc1cccc(-c2cc(C(=O)NCC3CCOCC3)c3cnn(C(C)C)c3n2)c1` [Compound 105] is 1.36 µM.
Still for that read-out and setting: then `CCOC(=O)c1cc(-c2cccc(CN(C)CCNC)c2)nc2c1cnn2C(C)C` [Compound 78], with 13 µM; and `CCOc1cc(-c2cccc(CN(C)CCNC)c2)nc2c1cnn2C(C)C` [Compound 53], with 3.47 µM; and `CNCCN(C)Cc1cccc(-c2nc(N3CCOCC3)c3cnn(C(C)C)c3n2)c1` [Compound 99], with 1.54 µM.
Regarding `CCS(=O)(=O)Nc1cc(-c2cccc(CN(C)CCN)c2)nc2c1cnn2C(C)C` [Compound 111], the IC50 in experiment [2] worked out at 11.9 µM.
With `CC(C)n1ncc2c(NC(=O)OCc3ccccc3)cc(-c3cccc(CN(C)CCN)c3)nc21` [Compound 84], the IC50 was determined as 13.3 µM in experiment [2] and 27.7 µM in experiment [1].
Compound `CNCCN(C)Cc1cccc(-c2cc(C(=O)N3CCCCC3)c3cnn(C(C)C)c3n2)c1` [Compound 56] displayed an IC50 in experiment [2] of 16.8 µM.
On the same count and under the same terms, the figure for `CNCCN(C)Cc1cccc(-c2cc(NC(=O)N(C)C)c3cnn(C(C)C)c3n2)c1` [Compound 123] is 4.78 µM.
The same measure, in the same setting: the figure for `CNCCN(C)Cc1cccc(-c2cc(N(C)C)c3cnn(C(C)C)c3n2)c1` [Compound 103] is 10.3 µM.
Take `CNCCN(C)Cc1cccc(-c2cc(N(C)C3CC3)c3cnn(C(C)C)c3n2)c1` [Compound 95]: the IC50 came out at 6.8 µM in experiment [2] and 200 µM in experiment [1].
In experiment [2], `CNCCN(C)Cc1cccc(-c2cc(N3CCC3)c3cnn(C(C)C)c3n2)c1` [Compound 79] displayed an IC50 of 20 µM.
Turning to `Cc1ccccc1Cn1cnc2ccc(-c3ccc(CNCCN)cc3)cc21` [Compound 82], the IC50 in experiment [1] came to 0.236 µM.
In turn, `CNCCN(C)Cc1cccc(-c2cc(-c3cnn(C)c3)c3cnn(C(C)C)c3n2)c1` [Compound 49, N1-(3-(1-isopropyl-4-(1-methyl-1H-pyrazol-4-yl)-1H-pyrazolo[3,4-b]pyridin-6-yl)benzyl)-N1,N2-dimethylethane-1,2-diamine] had an IC50 in experiment [2] of 1.29 µM.
In experiment [2], `CNCCN(C)Cc1cccc(-c2nc(N(C)C3CCOCC3)c3cnn(C4CC4)c3n2)c1` [Compound 109, N1-(3-(1-cyclopropyl-4-(methyl(tetrahydro-2H-pyran-4-yl)amino)-1H-pyrazolo[3,4-d]pyrimidin-6-yl)benzyl)-N1,N2-dimethylethane-1,2-diamine] gave an IC50 of 10.7 µM.
As to `CN(CCN)Cc1cccc(-c2nc(NCc3ccncc3)c3cnn(C4CC4)c3n2)c1` [Compound 66], the IC50 in experiment [2] turned out to be 20 µM.
Still for that read-out and setting: then `CNCCN(C)Cc1cccc(-c2cc(C(=O)NCc3ccccn3)c3cnn(C(C)C)c3n2)c1` [Compound 98], with 1.6 µM; and `CN(CCN)Cc1cccc(-c2nc(NCc3cn4ccsc4n3)c3cnn(C4CC4)c3n2)c1` [Compound 5], with 20 µM.
For `CNCCN(C)Cc1cccc(-c2cc(C(=O)NC3CCOCC3)c3cnn(C4CC4)c3n2)c1` [Compound 87], the IC50 in experiment [2] worked out at 2.17 µM.
Still for that read-out and setting: then `CNCCN(C)Cc1cccc(-c2cc(NC)c3cnn(C(C)C)c3n2)c1` [Compound 121], with 7.45 µM.
With `NCCNCc1ccc(-c2ccc3ncn(CC4CCNCC4)c3c2)cc1` [Compound 70], in experiment [1], the IC50 was 0.421 µM.
The same measure, in the same setting: the figure for `NCCNCc1ccc(-c2ccc3ncn(Cc4ccc(C(=O)N5CCCC5)cc4)c3c2)cc1` [Compound 104] is 0.1 µM.
For `CNCCN(C)Cc1cccc(-c2ccc3cnn(C(C)C)c3n2)c1` [Compound 73], the results for the IC50 in experiment [2] and in experiment [1] were 20 µM and 50 µM, respectively.
In experiment [2], `CN(CCN)Cc1cccc(-c2nc(NC3CC3)c3cnn(C4CC4)c3n2)c1` [Compound 96] showed an IC50 of 12.5 µM.
For the compound `COc1cccc(Cn2cnc3ccc(-c4ccc(CN(C)CCN)cc4)cc32)c1` [Compound 8], in experiment [1], the IC50 was determined as 16 µM.
The same measure, in the same setting: then `Cc1cccc(-n2cnc3ccc(-c4ccc(CNCCN)cc4)cc32)c1` [Compound 106], with 0.178 µM.
As to `CC(C)n1ncc2c(C(=O)NCc3ccccc3Cl)cc(-c3cccc(CN(C)CCN)c3)nc21` [Compound 54], the IC50 in experiment [2] is 20 µM.
`CNCCN(C)Cc1cccc(-c2ccc3cnn(C(C)C)c3c2)c1` [Compound 100]: the IC50 in experiment [1] was 50 µM.
Compound `CNCCN(C)Cc1cccc(-c2nc(NCc3cnn(C)c3C)c3cnn(C4CC4)c3n2)c1` [Compound 57] returned an IC50 in experiment [2] of 20 µM.
On to `NCCNCc1ccc(-c2ccc3ncn(CC4CCCNC4)c3c2)cc1` (stereo not shown) [Compound 81], for which the IC50 in experiment [1] turned out to be 0.321 µM.
Compound `CNCCN(C)Cc1cccc(-c2cc(N3CCC(OC)CC3)c3cnn(C(C)C)c3n2)c1` [Compound 51] yielded an IC50 in experiment [2] of 5.39 µM.
Still for that read-out and setting: the figure for `CC(C)NC(=O)Nc1cc(-c2cccc(CN(C)CCN)c2)nc2c1cnn2C(C)C` [Compound 86] is 3.46 µM.
